Reference: BindingDB's records for patent US20240383913 (Chinese Academy of Sciences, 2024)
pKi: −log10 of the molar value.

Tests used:
[1] = biological target: 5-hydroxytryptamine receptor 2A (Homo sapiens, UniProt P28223); experiment: Affinity of Compounds for 5-HT2A Receptors
Experimental: The affinity of the compounds of the present disclosure for the 5-HT2A receptors was determined by the method of radioligand competition experiment. In the first step, a cell membrane component containing specific 5-HT2A receptor was prepared. A 10 cm dish was used for transfection with 10 ng of the 5-HT2A receptor and 40 μL of PEI. After 48 hours, the 10 cm dish was taken out from the cell incubator and the cultured cells had expressed the 5-HT2A receptor. A vacuum pump was used to suck off the culture medium, 3 mL of lysis buffer was added to each culture dish, and the cells were placed in a 4° C. cold room for 10 minutes. After the cells were detached, the cells were transferred to a 15 mL centrifuge tube and centrifuged at 1500 rpm for 5 minutes at 4° C., and the supernatant was discarded. The cell pellet was transferred to a tissue homogenizer, and 3 mL of lysis buffer was added and fully ground until the cells were broken. Then, cell suspension was equally aliquoted into several EP tubes, centrifuged at 12000 rpm for 5 minutes at 4° C., and the supernatant was discarded. The precipitate was the cell membrane component containing the 5-HT2A receptor. […] First, a standard binding buffer was added to the cell membrane component containing the 5-HT2A receptor, and the cell membrane was disrupted and resuspended with an electric tissue homogenizer. […]

D(2) dopamine receptor = D(2) dopamine receptor (Homo sapiens, UniProt P14416); experiment: Affinity of Compounds for Dopamine D2 Receptors
Sequence of D(2) dopamine receptor (P14416 whole entry): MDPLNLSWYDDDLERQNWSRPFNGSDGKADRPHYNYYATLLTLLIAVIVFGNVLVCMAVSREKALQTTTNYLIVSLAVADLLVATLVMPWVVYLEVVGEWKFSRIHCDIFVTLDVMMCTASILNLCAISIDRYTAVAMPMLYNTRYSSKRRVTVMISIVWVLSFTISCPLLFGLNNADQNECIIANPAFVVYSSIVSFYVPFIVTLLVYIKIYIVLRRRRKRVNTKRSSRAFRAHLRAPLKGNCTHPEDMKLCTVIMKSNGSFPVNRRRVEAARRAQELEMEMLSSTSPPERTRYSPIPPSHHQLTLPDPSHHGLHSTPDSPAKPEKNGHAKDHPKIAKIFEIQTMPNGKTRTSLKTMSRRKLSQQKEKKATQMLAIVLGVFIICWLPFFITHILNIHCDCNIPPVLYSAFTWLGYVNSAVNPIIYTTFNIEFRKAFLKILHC
Experimental: The affinity of the compounds of the present disclosure for the dopamine D2 receptors was determined by the method of radioligand competition experiment. In the first step, a cell membrane component containing specific dopamine D2 receptors was prepared. A 10 cm culture dish was used for transfection with 10 ng of the dopamine D2 receptors and 40 μL of polyethylenimine (PEI hereafter). After 48 hours, the 10 cm culture dish was taken out from the cell culture incubator and the cultured cells had expressed the dopamine D2 receptors. A vacuum pump was used to suck off the culture medium, 3 mL of lysis buffer was added to each culture dish, and the cells were placed in a 4° C. cold room for 10 minutes. After the cells were detached, the cells were transferred to a 15 mL centrifuge tube and centrifuged at 1500 rpm for 5 minutes at 4° C., and the supernatant was discarded. The cell pellet was transferred to a tissue homogenizer, and 3 mL of lysis buffer was added and fully ground until the cells were broken. Then, cell suspension was equally aliquoted into several EP tubes, centrifuged at 12000 rpm for 5 minutes at 4° C., and the supernatant was discarded. The precipitate was the cell membrane component containing the dopamine D2 receptors. […]

Sequence of 5-hydroxytryptamine receptor 2A (P28223 whole entry): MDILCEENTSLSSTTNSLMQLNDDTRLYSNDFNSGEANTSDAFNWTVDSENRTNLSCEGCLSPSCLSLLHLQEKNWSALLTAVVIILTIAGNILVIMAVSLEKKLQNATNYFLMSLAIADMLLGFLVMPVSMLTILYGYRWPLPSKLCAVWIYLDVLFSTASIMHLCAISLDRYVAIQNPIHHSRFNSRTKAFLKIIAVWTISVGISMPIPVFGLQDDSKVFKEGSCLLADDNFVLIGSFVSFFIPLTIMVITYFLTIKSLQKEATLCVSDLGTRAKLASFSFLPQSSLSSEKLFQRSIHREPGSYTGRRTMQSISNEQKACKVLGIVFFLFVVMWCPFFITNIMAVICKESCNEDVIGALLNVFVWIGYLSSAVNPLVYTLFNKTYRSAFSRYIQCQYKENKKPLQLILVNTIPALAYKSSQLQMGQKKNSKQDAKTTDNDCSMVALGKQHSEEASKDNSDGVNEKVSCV

SMILES: c1ccc(-c2cccc(CN3CCN4c5cccc6scc(c56)CC4C3)c2)cc1 (configuration not stated) [US20240383913, Compound I-7]
- pKi [1]: 6.04
- pKi (D(2) dopamine receptor): 6.51
